# Laboratory results reported in patent publication US20170313665A1, “HYDROXYALKYL-SUBSTITUTED PHENYLTRIAZOLE DERIVATIVES AND USES THEREOF” (BAYER PHARMA AKTIENGESELLSCHAFT, priority 2014, published 2017).
# What was measured:
# human V1a receptor = target: T1, human V1a receptor (Homo sapiens, UniProt P37288); test: Cellular in vitro assay for vasopressin receptor activity, V1a receptor cell line (aequorin luminescence); assay type: cell-based; conditions: CHO cell line transfected with human V1a receptor; [Arg8]-vasopressin at EC50; read-out: IC50 hV1a
# T1 construct: expressed in transfected cells; host or cells: CHO K1 (ATCC), also stably transfected with a modified aequorin
# Protocol: The identification of agonists and antagonists of the V1a and V2 vasopressin receptors from humans, rats and dogs as well as the quantification of the activity of the compounds of the invention is carried out using recombinant cell lines. These cell lines originally derive from a hamster's ovary epithelial cell (Chinese Hamster Ovary, CHO K1, ATCC: American Type Culture Collection, Manassas, Va. 20108, USA). The test cell lines constitutively express the human, rat or dog V1a or V2 receptors. […] The resulting vasopressin receptor cells react to stimulation of the recombinantly expressed V1a receptors by intracellular release of calcium ions, which can be quantified by the resulting photoprotein luminescence. […] The bioluminescence of the cell lines is detected using a suitable luminometer [Milligan G, Marshall F, Rees S, Trends in Pharmacological Sciences 17, 235-237 (1996)].
# On the day before the assay, the cells are plated out in culture medium (DMEM/F12, 2% FCS, 2 mM glutamine, 10 mM HEPES, 5 μg/ml coelenterazine) in 384-well microtiter plates and kept in a cell incubator (96% humidity, 5% v/v CO2, 37° C.). […] The resulting light signal is measured immediately in the luminometer. […]
# Wistar rats = test: Diuresis investigations in conscious rats kept in metabolism cages; assay type: in vivo, rat
# Protocol: Wistar rats (220-450 g body weight) are kept with free access to feed (Altromin) and drinking water. During the experiment, the animals are kept with free access to drinking water for 4 to 8 or up to 24 hours individually in metabolism cages suitable for rats of this weight class (Tecniplast Deutschland GmbH, D-82383 Hohenpeiβenberg). At the beginning of the experiment, the animals are administered the test substance in a volume of 1 to 3 ml/kg body weight of a suitable solvent by means of gavage into the stomach. Control animals only receive solvent. Controls and substance tests are carried out in parallel on the same day. Control groups and substance-dose groups each consist of 4 to 8 animals. During the experiment, the urine excreted by the animals is collected continuously in a receiver at the base of the cage. The volume of urine per time unit is determined separately for each animal, and the concentration of urinary electrolytes is measured by standard methods of flame photometry. Before the beginning of the experiment, the body weight of the individual animals is determined.
# [1] = dosage p.o. 0.3 mg/kg, 0.3 mg/kg
# T1 sequence (P37288 whole entry): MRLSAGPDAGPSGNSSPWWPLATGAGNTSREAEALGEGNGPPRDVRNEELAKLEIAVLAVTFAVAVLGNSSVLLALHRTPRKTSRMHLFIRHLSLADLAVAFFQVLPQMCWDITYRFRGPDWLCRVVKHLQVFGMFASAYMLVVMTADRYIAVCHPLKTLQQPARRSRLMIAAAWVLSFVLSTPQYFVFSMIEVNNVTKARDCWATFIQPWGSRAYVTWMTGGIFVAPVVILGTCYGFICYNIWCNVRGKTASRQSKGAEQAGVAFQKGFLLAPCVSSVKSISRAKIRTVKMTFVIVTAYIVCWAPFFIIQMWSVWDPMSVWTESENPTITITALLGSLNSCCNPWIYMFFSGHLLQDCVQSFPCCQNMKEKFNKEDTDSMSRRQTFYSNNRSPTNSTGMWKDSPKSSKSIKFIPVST
structure (smiles),measurement,setting,value
"CC(O)c1nc(Cn2nc(-c3ccc(Cl)cc3)n(C[C@H](O)C(F)(F)F)c2=O)nn1-c1cc(F)ccc1Cl (single isomer, unassigned) [Example 59]",IC50,human V1a receptor,0.5 nM
"CC(O)c1nc(Cn2nc(-c3ccc(Cl)cc3)n(C[C@H](O)C(F)(F)F)c2=O)nn1-c1cc(F)ccc1Cl (single isomer, unassigned) [Example 60]",IC50,human V1a receptor,0.5 nM
"C[C@@H](O)c1nc(Cn2nc(-c3ccc(Cl)cc3)n(C[C@H](O)C(F)(F)F)c2=O)nn1-c1ccccc1Cl [Example 83, 5-(4-Chlorophenyl)-2-({1-(2-chlorophenyl)-5-[(1R)-1-hydroxyethyl]-1H-1,2,4-triazol-3-yl}-methyl)-4-[(2S)-3,3,3-trifluoro-2-hydroxypropyl]-2,4-dihydro-3H-1,2,4-triazol-3-one]",Urinary volume [% vs. control = 100%],Wistar rats; dosage p.o. 3.0 mg/kg,1094 % vs. control = 100%
"C[C@H](O)c1nc(Cn2nc(-c3ccc(Cl)cc3)n(C[C@H](O)C(F)(F)F)c2=O)nn1-c1cccc(Cl)c1 [Example 79, 5-(4-Chlorophenyl)-2-({1-(3-chlorophenyl)-5-[(1S)-1-hydroxyethyl]-1H-1,2,4-triazol-3-yl}methyl)-4-[(2S)-3,3,3-trifluoro-2-hydroxypropyl]-2,4-dihydro-3H-1,2,4-triazol-3-one]",Urinary volume [% vs. control = 100%],Wistar rats; dosage p.o. 3.0 mg/kg,1312 % vs. control = 100%
"COc1ccccc1-n1nc(Cn2nc(-c3ccc(Cl)cc3)n(C[C@H](O)C(F)(F)F)c2=O)nc1C(C)O (single isomer, unassigned) [Example 11]",Urinary volume [% vs. control = 100%],Wistar rats; [1],159 % vs. control = 100%
same,Urinary volume [% vs. control = 100%],"Wistar rats; dosage p.o. 3.0 mg/kg, 3 mg/kg",443 % vs. control = 100%
"CC(O)c1nc(Cn2nc(-c3ccc(Cl)cc3)n(C[C@H](O)C(F)(F)F)c2=O)nn1-c1cc(F)cc(Cl)c1 (single isomer, unassigned) [Example 15]",Urinary volume [% vs. control = 100%],Wistar rats; dosage p.o. 0.3 mg/kg,412 % vs. control = 100%
same,Urinary volume [% vs. control = 100%],Wistar rats; dosage p.o. 3.0 mg/kg,1085 % vs. control = 100%
"COc1ccccc1-n1nc(Cn2nc(-c3ccc(Cl)cc3)n(C[C@H](O)C(F)(F)F)c2=O)nc1C(C)O (single isomer, unassigned) [Example 12]",Urinary volume [% vs. control = 100%],Wistar rats; [1],96 % vs. control = 100%
same,Urinary volume [% vs. control = 100%],"Wistar rats; dosage p.o. 3.0 mg/kg, 3 mg/kg",323 % vs. control = 100%
"CC(O)c1nc(Cn2nc(-c3ccc(Cl)cc3)n(C[C@H](O)C(F)(F)F)c2=O)nn1-c1cc(F)cc(Cl)c1 (single isomer, unassigned) [Example 14]",Urinary volume [% vs. control = 100%],Wistar rats; dosage p.o. 1.0 mg/kg,753 % vs. control = 100%
"C[C@H](O)c1nc(Cn2nc(-c3ccc(Cl)cc3)n(C[C@H](O)C(F)(F)F)c2=O)nn1-c1cccc(F)c1 [Example 76, 5-(4-Chlorophenyl)-2-({1-(3-fluorophenyl)-5-[(1 S)-1-hydroxyethyl]-1H-1,2,4-triazol-3-yl}methyl)-4-[(2S)-3,3,3-trifluoro-2-hydroxypropyl]-2,4-dihydro-3H-1,2,4-triazol-3-one]",Urinary volume [% vs. control = 100%],Wistar rats; dosage p.o. 3.0 mg/kg,1257 % vs. control = 100%
